The experiment concerns the target T1, ShaI/KChIP (Drosophila melanogaster, UniProt P17971).
T1 construct: expressed in transfected cells; subclone 18-13-20
T1 sequence (P17971 with tags, fused parts or gaps isoform P17971-1): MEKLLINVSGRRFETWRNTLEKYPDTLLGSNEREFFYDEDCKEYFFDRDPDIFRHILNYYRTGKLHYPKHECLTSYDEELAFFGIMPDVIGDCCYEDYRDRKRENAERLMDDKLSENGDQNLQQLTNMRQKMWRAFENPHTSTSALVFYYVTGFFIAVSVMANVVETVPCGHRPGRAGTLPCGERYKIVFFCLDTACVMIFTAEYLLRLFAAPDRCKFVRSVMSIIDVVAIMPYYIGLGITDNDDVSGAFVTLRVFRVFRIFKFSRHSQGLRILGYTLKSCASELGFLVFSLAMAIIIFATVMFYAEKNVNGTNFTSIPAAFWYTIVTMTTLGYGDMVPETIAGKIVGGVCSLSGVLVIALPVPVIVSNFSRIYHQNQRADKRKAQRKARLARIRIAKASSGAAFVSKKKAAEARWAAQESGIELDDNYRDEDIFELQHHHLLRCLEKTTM
Nature of the experiment: Whole-cell patch clamp on ShaI/KChIP 20 cells. The following applies: 100 uM [final], incubation five minutes. Format: cell-based. The method, then:
Chinese hamster ovary (CHO) cells transfected with (a) a Drosophila ShaI gene (b) a Drosophila ShaI pore mutant gene and (c) a Drosophila ShaI+KChIP gene, and were used for all measurements. Cells were plated in 35 mm Petri dishes 2-6 hours before the experiment.
Data were acquired and analyzed using pClamp software (version 9.0.1.16). The whole-cell configuration of the patch-clamp technique was used to voltage clamp cells at room temperature (22-25° C.). Pipettes were pulled from borosilicate glass capillaries (#8250, Garner Glass, Claremont, Calif.) using a DMZ Universal Puller (Zeitz, Munich, Germany) and had resistances of 1-2 MOhm when filled with pipette solution and measured in bath solution. The liquid junction potential between bath and pipette solution was always compensated before the formation of a gigaohm seal.
Membrane current was measured under whole-cell clamp, sampled at 2 kHz and filtered at 1 kHz by an Axoclamp 200B (Axon Instruments). […]
To study ShaI currents on CHO cells, cells were held at −70 mV and a family of 500 ms test voltage pulses was applied starting from −70 to +70 mV, or +100 mV, in 10 mV increments. The amplitude, as measured for the current-voltage relationship, was defined as the maximal current at a given membrane potential. […]
FIG. 13: ShaI/KChIP inhibited by arachidonic acid. […] Pre- and post-compound currents were measured under whole-cell clamp. […]

In the case of `CCCCC/C=C\C/C=C\C/C=C\C/C=C\CCCC(=O)O` [arachidonic acid], the “inhibition of total ShaI/KChIP current” value is listed as “Complete inhibition”.

For the origin of these results see patent US9029080B2, “Screening assay for insecticides” (priority 2008, dated 2015).
